According to EP4480497A1, “BIO-CONJUGATES FOR ONCOLOGY” (priority 2023, dated 2024):
pIC50: −log10 of the molar value.

Key:
[1] = test system: triple negative breast tumour cells MDA-MB231; assay: ATPlite luminescence ATP assay in MDA-MB231 cells (Example 5); type: cell-based; details: MDA-MB231, ATP assay after a 72h treatment, Figure 5A
Experimental: Dose-response curves in triple negative breast tumour cells MDA-MB231 and IC50 values obtained from an ATP assay after a 72h treatment with CROMOC36, CROMOC36-DM1 and the unconjugated DM1 molecule is shown in Figure 5A. The x-axis indicates the drug concentration (nM) in log scale, and the y-axis indicates the % of cell viability as measured by the ATP levels in the treated cells relative to the DMSO control.
The cytotoxic effect of CROMOC-DM1 conjugates was evaluated on the MDA-MB-231 cell line by means of the ATPlite Luminescence ATP Detection Assay System. The cytotoxic effect of the different CROMOC conjugated with DM-1 was compared to that of non-conjugated CROMOCs. Cells treated only with the medium were used as control. Briefly, the cells were seeded in black 96-well plates at a density of 2000 cells/well. After 24 h, cells were treated with increasing concentrations of the conjugates (range 0.02 - 500 nM in CROMOC, n=11) for 72 hours. To quantify ATP production, cells were treated following the manufacturer's instructions, and luminescence was quantified by means of a Victor Nivo multi-plate reader (Perkin Elmer, Waltham, MA, USA). The percentage of cell viability was determined as (luminescencetreated cells/luminescencecontrol cells) × 100. IC50 values were calculated using GraphPad Prism 9.0 (San Diego, CA, USA) by a nonlinear regression model.

[2] = test system: tumour xenograft LIXF HEP3B (hepatocellular carcinoma); assay: Orthotopic hepatocellular carcinoma xenograft, anti-tumour efficacy (Example 7); type: in vivo, NMRI nude mice; details: seven to eight mice per group, each substance at its one regimen
Experimental: The experiment comprised a reference group (Group 1) dosed with phosphate buffered saline and four treatment groups (Groups 2 to 5). […] The daily dose was split, the daily dosing interval was 6 hours. Mice were either sacrificed individually when their general condition required sacrifice or at termination of the experiment. The group size at the start of dosing was seven to eight mice per group, bearing orthotopic growing LIXF HEP3B.

[3] = Tolerability (mortality, body weight, skin) in the LIXF HEP3B xenograft study (Example 7); type: in vivo, NMRI nude mice
Experimental: The experiment comprised a reference group (Group 1) dosed with phosphate buffered saline and four treatment groups (Groups 2 to 5). […] CROMOC62 was given subcutaneously every second week for 4 weeks at 32 (induction dosing on day 0) and 16 (day 14 and 28) mg/kg/d. Sorafenib was applied daily for 6 days in mono and combined therapy and additional 6 days (9-14) exclusively in monotherapy per oral at 200 mg/kg/d. The daily dose was split, the daily dosing interval was 6 hours. Mice were either sacrificed individually when their general condition required sacrifice or at termination of the experiment. The group size at the start of dosing was seven to eight mice per group, bearing orthotopic growing LIXF HEP3B. […] CROMOC62 was given at one dose levels (32 mg/kg on day 0 and 16 mg/kg/d on days 14 and 28) in monotherapy or in combination with sorafenib which was given at one dose level (200 mg/kg/d on days 0-5). The effect of sorafenib monotherapy was also assessed (200 mg/kg/d on day 0-5 and 9-14).

| Structure (SMILES) | pIC50 [1] | complete remissions (number of mice) [2] | partial remissions (number of mice) [2] | mortalities ([3]; LIXF HEP3B study, seven to eight mice per group, each substance at its one regimen) | maximum body weight loss ([3]; on day 16, sorafenib 12x200 mg/kg/d per oral) |
| --- | --- | --- | --- | --- | --- |
| COc1cc2cc(c1Cl)N(C)C(=O)C[C@H](OC(=O)[C@H](C)N(C)C(=O)CCS)[C@]1(C)O[C@H]1[C@H](C)[C@@H]1C[C@@](O)(NC(=O)O1)[C@H](OC)/C=C/C=C(\C)C2 [DM1, DM1 Maytansinoid] | ~9.02 | – | – | – | – |
| CNC(=O)c1cc(Oc2ccc(NC(=O)Nc3ccc(Cl)c(C(F)(F)F)c3)cc2)ccn1 [sorafenib] | – | five | two | One out of eight | 2.5% |
